Laboratory results reported in paper PMC2994807 (Biochemistry, 2010).

Experiments:
[1] = target: dialkylglycine decarboxylase (DGD); WT DGD (Burkholderia cepacia, UniProt P16932, M141R/W138F); test: biochemical
[2] = target: dialkylglycine decarboxylase (DGD); WT DGD (Burkholderia cepacia, UniProt P16932, W138F); test: biochemical

| Compound | Ki [1] [mM] | Ki [2] [mM] |
| --- | --- | --- |
| N[C@H](CCC(=O)O)C(=O)O [D-glutamate] | 89 |  |
| N[C@@H](C(=O)O)c1ccccc1 [D-phenylglycine] |  | 50 |
